Source: US20180327367A1, “MACROCYCLIC BROAD SPECTRUM ANTIBIOTICS” (priority 2015, published 2018)
Values after ≈ are worked out from the molar mass of the structure shown. Like-named read-outs stand apart in the source and are kept apart here.

Experiments:
[1] = test system: Methicillin Resistant Staphylococcus aureus strain USA 300, NRS384; assay: Minimum inhibitory concentration, broth micro-dilution (CLSI), S. aureus; assay type: cell-based; details: Staphylococcus aureus, MRSA / NRS 384 / USA300, 22 h, 35° C., 22 hours
Procedure, shortened: (§1)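 CLSI broth microdilution in cation-adjusted Mueller Hinton Broth with 0.002% Tween-80; inoculum final OD600 0.0005, 22 hours at 35° C. Ten 2-fold dilutions starting at 4 μg/mL (protocol 2) or 0.5 μg/mL (protocol 3).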

[2] = test system: Escherichia coli MC4100 harboring the IMP4213 (E. coli IMP); assay: microbe, parasite or virus in culture; assay type: cell-based; details: Escherichia coli, 22 h, read-out: MIC (μg/mL) E. coli IMP, E. coli MC4100 IMP4213, increased outer-membrane permeability; 35° C., 22 hours
Procedure, shortened: as §1

[3] = molecular target: T1, SpsB (Staphylococcus aureus signal peptidase) (Staphylococcus aureus, UniProt P0A070); assay: cell-based; assay type: biochemical; details: SpsB IC50, whole-cell S. aureus (USA300 background, overexpressing SpsB) as SpsB source; fluorogenic peptide substrate, kinetic read 30 min
T1 construct: This assay uses a suspension of Staphylococcus aureus cells as a source of SpsB instead of recombinant SpsB protein; endogenous in cells; host or cells: S. aureus, USA300 background, overexpressing SpsB (whole-cell suspension from frozen pellets)
Procedure, shortened: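 Whole S. aureus cells (USA300, overexpressing SpsB) in PBS with MgCl2, CaCl2 and 0.1% Tween-80 served as enzyme source, mixed with 20 μM stock of (Dabcyl)βAla-KPAKAAE(Edans) substrate before use. Fluorescence (ex 340/em 490 nm) read kinetically over 30 min. IC50 from reaction rate versus 11-point inhibitor concentration.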

[4] = test system: Escherichia coli ATCC 25922; assay: Minimum inhibitory concentration, broth micro-dilution (CLSI), E. coli; assay type: cell-based; details: Escherichia coli, ATCC25922, 22 h, 35° C., 22 hours
[5] = MRSA USA 300 NRS384, read-out: MIC (μg/mL) S. aureus
[6] = E. coli ATCC 25922, read-out: MIC (μg/mL) E. coli
[7] = read-out: MIC (μg/mL) S. aureus, MRSA USA 300 NRS384
[8] = read-out: MIC (μg/mL) E. coli, E. coli ATCC 25922

T1 sequence (P0A070 whole entry): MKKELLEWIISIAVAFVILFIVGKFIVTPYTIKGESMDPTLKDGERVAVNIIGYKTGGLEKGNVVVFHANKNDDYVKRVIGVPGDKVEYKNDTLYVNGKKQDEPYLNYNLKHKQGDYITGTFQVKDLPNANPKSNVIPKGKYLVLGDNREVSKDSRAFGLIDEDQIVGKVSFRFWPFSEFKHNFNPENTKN

Row | Structure (SMILES) | MIC [1, 5] [µg/mL] | MIC [2] [µg/mL] | IC50 [3] [nM] | MIC [4, 6] [µg/mL] | MIC [1, 7] [µg/mL] | MIC [4, 8] [µg/mL]
1 | CCCCCCCCc1ccc(C(=O)N[C@@H](CO)C(=O)N(C)[C@@H]2C(=O)N[C@@H](C)C(=O)N[C@H](C(=O)NCC#N)Cc3ccc(OCCN)c(c3)-c3cc2ccc3OCCN)c(C)c1 [Compound 235] | 0.094 (≈ 0.11 µM) | 0.012 (≈ 0.014 µM) | 0.98 | 1 (≈ 1.17 µM) |  | 
2 | CCCCCCCCCC(=O)N[C@@H](CC(N)=O)C(=O)N(C)[C@@H]1C(=O)N[C@@H](C)C(=O)N[C@H](C(=O)NCC#N)Cc2ccc(OCCN)c(c2)-c2cc1ccc2OCCN [Compound 236] | 1 (≈ 1.24 µM) | 1.5 (≈ 1.86 µM) | 1.5 | > 64 |  | 
3 | CCCCCCc1ccc(C(=O)N[C@@H](CC(N)=O)C(=O)N(C)[C@@H]2C(=O)N[C@@H](C)C(=O)N[C@H](C(=O)NCC#N)Cc3ccc(OCCN)c(c3)-c3cc2ccc3OCCN)c(C)c1 [Compound 237] | 0.13 (≈ 0.152 µM) | 0.094 (≈ 0.11 µM) | 1.1 | 16 (≈ 18.7 µM) |  | 
4 | CCCCCCCCc1ccc(C(=O)N[C@@H](CC(N)=O)C(=O)N(C)[C@@H]2C(=O)N[C@@H](C)C(=O)N[C@H](C(=O)NCC#N)Cc3ccc(OCCN)c(c3)-c3cc2ccc3OCCN)c(C)c1 [Compound 239] | 0.047 (≈ 0.0533 µM) | 0.094 (≈ 0.107 µM) | 0.74 | 3 (≈ 3.4 µM) |  | 
5 | CCCCCCCCCCCC(=O)N[C@@H](C)C(=O)N(C)[C@@H]1C(=O)N[C@@H](C)C(=O)N[C@H](C(=O)NCC#N)Cc2ccc(OCCN)c(c2)-c2cc1ccc2OCCN [Compound 241] | 0.13 (≈ 0.164 µM) | 0.063 (≈ 0.0796 µM) | 1.4 | 6 (≈ 7.59 µM) |  | 
6 | CCCCCCCCc1ccc(C(=O)N[C@@H](C)C(=O)N(C)[C@@H]2C(=O)N[C@@H](C)C(=O)N[C@H](C(=O)NCC#N)Cc3ccc(OCCN)c(c3)-c3cc2ccc3OCCN)c(C)c1 [Compound 243] | 0.094 (≈ 0.112 µM) | 0.031 (≈ 0.0369 µM) | 1.3 | 1.5 (≈ 1.79 µM) |  | 
7 | CCCCCCCCCCCC(=O)N[C@@H](CCC(N)=O)C(=O)N(C)[C@@H]1C(=O)N[C@@H](C)C(=O)N[C@H](C(=O)NCC#N)Cc2ccc(OCCN)c(c2)-c2cc1ccc2OCCN [Compound 244] | 0.13 (≈ 0.153 µM) | 0.19 (≈ 0.224 µM) | 1 | 48 (≈ 56.6 µM) |  | 
8 | CCCCc1ccc(C(=O)N[C@@H](CCC(N)=O)C(=O)N(C)[C@@H]2C(=O)N[C@@H](C)C(=O)N[C@H](C(=O)NCC#N)Cc3ccc(OCCN)c(c3)-c3cc2ccc3OCCN)c(C)c1 [Compound 245] | 1 (≈ 1.19 µM) | 0.38 (≈ 0.452 µM) | 6.3 | > 64 |  | 
9 | CCCCCCc1ccc(C(=O)N[C@@H](CCC(N)=O)C(=O)N(C)[C@@H]2C(=O)N[C@@H](C)C(=O)N[C@H](C(=O)NCC#N)Cc3ccc(OCCN)c(c3)-c3cc2ccc3OCCN)c(C)c1 [Compound 246] | 0.13 (≈ 0.15 µM) | 0.063 (≈ 0.0726 µM) | 1.1 | 16 (≈ 18.4 µM) |  | 
10 | CCCCc1ccc(-c2ccc(C(=O)N[C@@H](CO)C(=O)N(C)[C@@H]3C(=O)N[C@@H](C)C(=O)N[C@H](C(=O)NCC#N)Cc4ccc(OCCN)c(c4)-c4cc3ccc4OCCN)cc2)cc1 [Compound 249] | 0.13 (≈ 0.151 µM) | 0.012 (≈ 0.0139 µM) | 1.2 | 0.69 (≈ 0.801 µM) |  | 
11 | C[C@@H]1NC(=O)[C@@H](N(C)C(=O)[C@H](CO)NC(=O)c2ccc(-c3ccc(Cl)cc3)nc2)c2ccc(OCCN)c(c2)-c2cc(ccc2OCCN)C[C@@H](C(=O)NCC#N)NC1=O [Compound 250] |  | 0.25 (≈ 0.297 µM) | 7 |  | 1 (≈ 1.19 µM) | 64 (≈ 76.2 µM)
12 | CCCCCCCCCCCC(=O)N[C@@H](CCC(=O)O)C(=O)N(C)[C@@H]1C(=O)N[C@@H](C)C(=O)N[C@H](C(=O)NCC#N)Cc2ccc(OCCN)c(c2)-c2cc1ccc2OCCN [Compound 253] | 2 (≈ 2.36 µM) | 2 (≈ 2.36 µM) | 12 | > 64 |  | 
13 | CCCCCCCCCC(=O)N[C@@H](CCSC)C(=O)N(C)[C@@H]1C(=O)N[C@@H](C)C(=O)N[C@H](C(=O)NCC#N)Cc2ccc(OCCN)c(c2)-c2cc1ccc2OCCN [Compound 254] | 0.5 (≈ 0.607 µM) | 0.5 (≈ 0.607 µM) | 1.6 | 48 (≈ 58.3 µM) |  | 
14 | CCCCCCCCCCCC(=O)N[C@H](C(=O)N(C)[C@@H]1C(=O)N[C@@H](C)C(=O)N[C@H](C(=O)NCC#N)Cc2ccc(OCCN)c(c2)-c2cc1ccc2OCCN)[C@@H](C)O [Compound 256] | 0.19 (≈ 0.231 µM) | 0.094 (≈ 0.114 µM) | 0.8 | 16 (≈ 19.5 µM) |  | 
15 | CCCCCCCCCCCC(=O)N[C@@H](CCO)C(=O)N(C)[C@@H]1C(=O)N[C@@H](C)C(=O)N[C@H](C(=O)NCC#N)Cc2ccc(OCCN)c(c2)-c2cc1ccc2OCCN [Compound 257] | 0.13 (≈ 0.158 µM) | 0.063 (≈ 0.0767 µM) | 0.92 | 12 (≈ 14.6 µM) |  | 
16 | CCCCc1ccc(C(=O)N[C@@H](CCO)C(=O)N(C)[C@@H]2C(=O)N[C@@H](C)C(=O)N[C@H](C(=O)NCC#N)Cc3ccc(OCCN)c(c3)-c3cc2ccc3OCCN)c(C)c1 [Compound 258] | 1 (≈ 1.23 µM) | 0.19 (≈ 0.234 µM) | 2.8 | 64 (≈ 78.7 µM) |  | 
17 | CCCCCCCc1ccc(C(=O)N[C@@H](CCO)C(=O)N(C)[C@@H]2C(=O)N[C@@H](C)C(=O)N[C@H](C(=O)NCC#N)Cc3ccc(OCCN)c(c3)-c3cc2ccc3OCCN)c(C)c1 [Compound 260] | 0.094 (≈ 0.11 µM) | 0.031 (≈ 0.0363 µM) | 1.1 | 2 (≈ 2.34 µM) |  | 
18 | Cc1cc(-c2ccc(CC(C)C)cc2)ccc1C(=O)N[C@@H](CCO)C(=O)N(C)[C@@H]1C(=O)N[C@@H](C)C(=O)N[C@H](C(=O)NCC#N)Cc2ccc(OCCN)c(c2)-c2cc1ccc2OCCN [Compound 261] | 0.13 (≈ 0.146 µM) | 0.047 (≈ 0.0529 µM) | 4.6 | 0.5 (≈ 0.562 µM) |  | 
19 | CCCCCCCCc1ccc(C(=O)N[C@@H](CCO)C(=O)N(C)[C@@H]2C(=O)N[C@@H](C)C(=O)N[C@H](C(=O)NCC#N)Cc3ccc(OCCN)c(c3)-c3cc2ccc3OCCN)c(C)c1 [Compound 262] | 0.063 (≈ 0.0725 µM) | 0.02 (≈ 0.023 µM) | 0.9 | 1 (≈ 1.15 µM) |  | 
20 | CCCCCCCCc1ccc(C(=O)N[C@@H](CCNCC(=O)O)C(=O)N(C)[C@@H]2C(=O)N[C@@H](C)C(=O)N[C@H](C(=O)NCC#N)Cc3ccc(OCCN)c(c3)-c3cc2ccc3OCCN)c(C)c1 [Compound 263] | 0.13 (≈ 0.14 µM) | 0.023 (≈ 0.0248 µM) | 1.1 | 2 (≈ 2.16 µM) |  | 
21 | CCCCCCCCCCCC(=O)N[C@@H](CCCO)C(=O)N(C)[C@@H]1C(=O)N[C@@H](C)C(=O)N[C@H](C(=O)NCC#N)Cc2ccc(OCCN)c(c2)-c2cc1ccc2OCCN [Compound 264] | 0.13 (≈ 0.156 µM) | 0.094 (≈ 0.113 µM) | 2 | 16 (≈ 19.2 µM) |  | 
22 | CCC(C)(C)c1ccc(C(=O)N[C@@H](CCN)C(=O)N(C)[C@@H]2C(=O)N[C@@H](C)C(=O)N[C@H](C(=O)NCC#N)Cc3ccc(OCCN)c(c3)-c3cc2ccc3OCCN)c(C)c1 [Compound 265] |  | 0.043 (≈ 0.0521 µM) | 0.89 |  | 0.13 (≈ 0.157 µM) | 2.5 (≈ 3.03 µM)
23 | Cc1cc(C(C)(C)C)ccc1C(=O)N[C@@H](CCN)C(=O)N(C)[C@@H]1C(=O)N[C@@H](C)C(=O)N[C@H](C(=O)NCC#N)Cc2ccc(OCCN)c(c2)-c2cc1ccc2OCCN [Compound 266] | 0.5 (≈ 0.616 µM) | 0.083 (≈ 0.102 µM) | 2.1 | 3.5 (≈ 4.31 µM) |  | 
24 | CCCCCCCOc1ccc(C(=O)N[C@@H](CCN)C(=O)N(C)[C@@H]2C(=O)N[C@@H](C)C(=O)N[C@H](C(=O)NCC#N)Cc3ccc(OCCN)c(c3)-c3cc2ccc3OCCN)c(Cl)c1 [Compound 267] |  | 0.012 (≈ 0.0135 µM) | 0.63 |  | 0.027 (≈ 0.0303 µM) | 0.13 (≈ 0.146 µM)
